Measured values taken from ChEMBL document CHEMBL1201862, “PubChem BioAssay data set” (2004).
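Assay format: 96-well plates, 48-hour exposure. GI50: concentration for 50% inhibition of growth.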 Active and inactive are the calls of the source. Cut-off read from the data, not from the text of the source: active = GI50 up to about 1.1 µM and inactive = higher.

Legend:
Test in all cases: DTP human tumour cell line panel, 48 h
EKVX = test system: EKVX
SF-268 = test system: SF-268
SF-295 = test system: SF-295
SF-539 = test system: SF-539
BT-549 = test system: BT-549
SK-MEL-28 = test system: SK-MEL-28
COLO 205 = test system: COLO 205
SK-OV-3 = test system: SK-OV-3
A498 = test system: A498
OVCAR-8 = test system: OVCAR-8
NCI-H226 = test system: NCI-H226
HL-60 = test system: HL-60
HOP-92 = test system: HOP-92
PC-3 = test system: PC-3
M14 = test system: M14
SK-MEL-5 = test system: SK-MEL-5
IGROV-1 = test system: IGROV-1
Malme-3M = test system: Malme-3M
KM12 = test system: KM12
MOLT-4 = test system: MOLT-4

Measured: GI50

Clc1ccc(-c2cn3c(nc4ccccc43)c(-c3ccccc3)n2)cc1
inactive: EKVX 64.3 µM | SF-268 48 µM | SF-295 13.3 µM | SF-539 22.3 µM | BT-549 19.5 µM | SK-MEL-28 39.8 µM | COLO 205 40.2 µM | SK-OV-3 11.6 µM | A498 23.9 µM | OVCAR-8 12.1 µM | NCI-H226 47 µM | HL-60 > 100 µM | HOP-92 18 µM | PC-3 18.7 µM | M14 28.3 µM | SK-MEL-5 17.7 µM | IGROV-1 24 µM | Malme-3M 23.1 µM | KM12 > 57.5 µM | MOLT-4 > 100 µM

CCN(CC)CCN1c2ccccc2Sc2ccc3ccccc3c21
inactive: EKVX 6.37 µM | SF-268 14.4 µM | SF-295 13.2 µM | SF-539 13.6 µM | BT-549 14.9 µM | SK-MEL-28 7.46 µM | COLO 205 4.75 µM | SK-OV-3 15.8 µM | A498 11.4 µM | OVCAR-8 12.6 µM | NCI-H226 7.45 µM | HL-60 3.54 µM | HOP-92 3.37 µM | PC-3 6.73 µM | M14 3.01 µM | SK-MEL-5 4.72 µM | IGROV-1 10.2 µM | Malme-3M 15.4 µM | KM12 7 µM | MOLT-4 3.74 µM

c1c[nH]c(CN2CCN(Cc3ncc[nH]3)CC2)n1
inactive: EKVX 52.2 µM | SF-268 > 100 µM | SF-295 > 100 µM | SF-539 > 100 µM | BT-549 > 100 µM | SK-MEL-28 > 100 µM | COLO 205 > 100 µM | SK-OV-3 > 100 µM | A498 > 100 µM | OVCAR-8 > 100 µM | NCI-H226 > 100 µM | HL-60 > 100 µM | HOP-92 > 100 µM | PC-3 > 100 µM | M14 > 100 µM | SK-MEL-5 > 100 µM | IGROV-1 > 100 µM | Malme-3M > 100 µM | KM12 > 100 µM | MOLT-4 > 100 µM

N/C(=N\c1ccc(Cl)cc1)NS(=O)(=O)c1ccc(S(=O)(=O)c2ccccc2)s1
inactive: EKVX 12.9 µM | SF-268 19.4 µM | SF-295 15.1 µM | SF-539 22.7 µM | BT-549 17.6 µM | SK-MEL-28 19.7 µM | COLO 205 18.4 µM | SK-OV-3 38.7 µM | A498 17.4 µM | OVCAR-8 20 µM | NCI-H226 26.4 µM | HL-60 22.3 µM | HOP-92 19.7 µM | PC-3 14.2 µM | M14 17.9 µM | SK-MEL-5 15.8 µM | IGROV-1 13.8 µM | Malme-3M 20 µM | KM12 22.8 µM | MOLT-4 18 µM

CCCC(=O)Nc1cc(/C=C/C(=O)N2C[C@H]3C[C@@]34C2=CC(=O)c2[nH]cc(C)c24)n(C)c1
active: EKVX < 0.0025 µM | SF-268 < 0.0025 µM | SF-295 < 0.0025 µM | SF-539 < 0.0025 µM | BT-549 < 0.0025 µM | SK-MEL-28 < 0.0025 µM | COLO 205 < 0.0025 µM | SK-OV-3 0.00401 µM | A498 < 0.0025 µM | OVCAR-8 < 0.0025 µM | NCI-H226 < 0.0025 µM | HL-60 < 0.0025 µM | HOP-92 < 0.0025 µM | PC-3 < 0.0025 µM | M14 < 0.0025 µM | SK-MEL-5 < 0.0025 µM | IGROV-1 < 0.0025 µM | Malme-3M < 0.0025 µM | KM12 < 0.0025 µM | MOLT-4 < 0.0025 µM

CSc1ncc2c(C#N)c3sc4ccccc4n3c(=O)c2n1
inactive: EKVX > 100 µM | SF-268 16.1 µM | SF-295 > 100 µM | SF-539 40.1 µM | BT-549 > 100 µM | SK-MEL-28 > 100 µM | COLO 205 > 100 µM | SK-OV-3 80.7 µM | A498 > 100 µM | OVCAR-8 26.1 µM | NCI-H226 26.1 µM | HL-60 > 100 µM | HOP-92 > 100 µM | PC-3 > 100 µM | M14 > 100 µM | SK-MEL-5 64.6 µM | IGROV-1 > 100 µM | Malme-3M > 100 µM | KM12 54.2 µM | MOLT-4 > 100 µM
